Entries after “also recorded” stand apart in the source; their conditions may differ.
Columns and labels:
[1] = test system: adults with Pompe disease; experiment: Study ATB200-02: patient-reported outcomes (FSS, R-PAct, RHS); type: in vivo, human
Text: Favorable findings observed through 48 months of treatment in 6MWD and FVC are bolstered by favorable directional trends in several other secondary endpoints for muscle strength, motor function, and respiratory function.
PROs supported the improvements observed for motor function, muscle strength and pulmonary function tests. […] SGIC outcomes for overall physical wellbeing improved in most patients across all cohorts after 48 months of follow up (Table 26C). PGIC results indicated an improvement or stabilization for all cohorts after 48 months of follow up and supported the results of other efficacy outcomes (Table 26C).
One patient reported no change, and one reported an improvement from baseline in SGIC overall physical wellbeing.

[2] = test system: adults with Pompe disease; experiment: Study ATB200-02: urine Hex4; conditions: for mean reduction from baseline in urine Hex4: b512 prints a minus sign;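 as to all read-outs here: Hex4 is the urine glucose tetrasaccharide biomarker, measured at regular intervals during study follow-up and compared with each patient's baseline value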
Experimental: The change from baseline (CFBL) in 6MWD, % predicted sitting FVC, manual muscle test (MMT) and biomarkers—urine glucose tetrasaccharide (Hex4) and serum creatine kinase (CK)—were assessed at regular intervals.

[3] = test system: adults with Pompe disease; experiment: Study ATB200-02: SGIC and PGIC; type: in vivo, human; conditions: 48 months follow-up
[4] = parameters: species or system human; conditions: in vivo
Text: Concomitant medications and nondrug therapies were also be recorded. […] Safety Analyses. Safety data was summarized using counts and percentages for categorical data and descriptive statistics (mean, standard deviation, median, minimum, maximum) for continuous data.

[5] = Ambulatory ERT-experienced, 12 months
[6] = Ambulatory ERT-experienced, 24 months
[7] = Ambulatory ERT-experienced, 36 months
[8] = Ambulatory ERT-experienced, 48 months
[9] = Ambulatory ERT-naïve, 12 months
[10] = Ambulatory ERT-naïve, 24 months
[11] = Ambulatory ERT-naïve, 36 months
[12] = Ambulatory ERT-naïve, 48 months
[13] = Non-ambulatory ERT-experienced, 12 months
[14] = Non-ambulatory ERT-experienced, 24 months
[15] = Non-ambulatory ERT-experienced, 36 months
[16] = Non-ambulatory ERT-experienced, 48 months
[17] = Cohort 1, ambulatory ERT-experienced, N = 7
[18] = Cohort 2, non-ambulatory ERT-experienced, N = 5
[19] = Cohort 3, ambulatory ERT-naïve, N = 6
[20] = Cohort 4, ambulatory ERT-experienced, N = 6

ATB200/miglustat: two-component therapy: cipaglucosidase alfa (ATB200) administered in conjunction with miglustat (AT2221), a stabilizer of cipaglucosidase alfa
patient-reported outcomes FSS, R-PAct, RHS ([1]; 48 months, listed as cipaglucosidase alfa/miglustat): meaningful improvements in subject-perceived fatigue, ability to perform daily life activities, and overall physical well-being; also recorded: all ambulatory patients reported stable R-PAct scores and RHS compared with baseline scores; also recorded: improved FSS and stable RHS scores compared with baseline | Fatigue Severity Scale, CFBL mean [1, 5]: −2.9 | Rasch-built Pompe-specific Activity, CFBL mean [1, 5]: 1.3 | Rotterdam Handicap Scale, CFBL mean [1, 5]: −0.3 | Fatigue Severity Scale, CFBL mean [1, 6]: −3.1 | Rasch-built Pompe-specific Activity, CFBL mean [1, 6]: 2.2 | Rotterdam Handicap Scale, CFBL mean [1, 6]: −1.1 | Fatigue Severity Scale, CFBL mean [1, 7]: 1.4 | Rasch-built Pompe-specific Activity, CFBL mean [1, 7]: −0.1 | Rotterdam Handicap Scale, CFBL mean [1, 7]: −2.3 | Fatigue Severity Scale, CFBL mean [1, 8]: −3.4 | Rasch-built Pompe-specific Activity, CFBL mean [1, 8]: −0.3 | Rotterdam Handicap Scale, CFBL mean [1, 8]: −2.3 | Fatigue Severity Scale, CFBL mean [1, 9]: −6.3 | Rasch-built Pompe-specific Activity, CFBL mean [1, 9]: 2.0 | Rotterdam Handicap Scale, CFBL mean [1, 9]: −0.4 | Fatigue Severity Scale, CFBL mean [1, 10]: −5.5 | Rasch-built Pompe-specific Activity, CFBL mean [1, 10]: 2.2 | Rotterdam Handicap Scale, CFBL mean [1, 10]: −0.4 | Fatigue Severity Scale, CFBL mean [1, 11]: −6.2 | Rasch-built Pompe-specific Activity, CFBL mean [1, 11]: 1.4 | Rotterdam Handicap Scale, CFBL mean [1, 11]: −1.2 | Fatigue Severity Scale, CFBL mean [1, 12]: 1.2 | Rasch-built Pompe-specific Activity, CFBL mean [1, 12]: −0.6 | Rotterdam Handicap Scale, CFBL mean [1, 12]: −1.3 | Fatigue Severity Scale, CFBL mean [1, 13]: −9.2 | Rasch-built Pompe-specific Activity, CFBL mean [1, 13]: 1.4 | Rotterdam Handicap Scale, CFBL mean [1, 13]: 0.6 | Fatigue Severity Scale, CFBL mean [1, 14]: −23.0 | Rasch-built Pompe-specific Activity, CFBL mean [1, 14]: 0.8 | Rotterdam Handicap Scale, CFBL mean [1, 14]: 0.6 | Fatigue Severity Scale, CFBL mean [1, 15]: −10.0 | Rasch-built Pompe-specific Activity, CFBL mean [1, 15]: 0.8 | Rotterdam Handicap Scale, CFBL mean [1, 15]: 0.6 | Fatigue Severity Scale, CFBL mean [1, 16]: −12.0 | Rasch-built Pompe-specific Activity, CFBL mean [1, 16]: 2.0 | Rotterdam Handicap Scale, CFBL mean [1, 16]: −1.5 | Urinary Hex4, % CFBL mean [2, 5]: −36.11% | Urinary Hex4, % CFBL mean [2, 6]: −11.8% | Urinary Hex4, % CFBL mean [2, 7]: −35.1% | Urinary Hex4, % CFBL mean [2, 8]: −4.0% | Urinary Hex4, % CFBL mean [2, 9]: −40.7% | Urinary Hex4, % CFBL mean [2, 10]: −49.5% | Urinary Hex4, % CFBL mean [2, 11]: −39.3% | Urinary Hex4, % CFBL mean [2, 12]: −39.9% | mean reduction from baseline in urine Hex4 ([2]; Cohort 2 (non-ambulatory ERT-experienced), 12 months, listed as cipaglucosidase alfa plus miglustat): 15.6% | mean reduction from baseline in urine Hex4 ([2]; Cohort 2 (non-ambulatory ERT-experienced), 12 months, listed as cipaglucosidase alfa/miglustat): −15.6% | mean reduction from baseline in urine Hex4 ([2]; Cohort 2, 24 months, listed as cipaglucosidase alfa plus miglustat): 34.1% | mean reduction from baseline in urine Hex4 ([2]; Cohort 2, 24 months, listed as cipaglucosidase alfa/miglustat): −34.1% | mean reduction from baseline in urine Hex4 ([2]; Cohort 2, 36 months, listed as cipaglucosidase alfa plus miglustat): 36.5% | mean reduction from baseline in urine Hex4 ([2]; Cohort 2, 36 months, listed as cipaglucosidase alfa/miglustat): −36.5% | mean reduction from baseline in urine Hex4 ([2]; Cohort 2, 48 months, listed as cipaglucosidase alfa plus miglustat): 9.4% | mean reduction from baseline in urine Hex4 ([2]; Cohort 2, 48 months, listed as cipaglucosidase alfa/miglustat): −4.0% | patients with abnormal baseline Hex4 who had normal Hex4 levels at Month 48 ([2]; ERT-experienced (four of five)): 80.0% | patients whose urine Hex4 decreased numerically from baseline (n/N) ([2]; ERT-experienced, 12 months): 16/16 | patients whose urine Hex4 decreased numerically from baseline (n/N) ([2]; ERT-experienced, 24 months): 11/14 | patients whose urine Hex4 decreased numerically from baseline (n/N) ([2]; ERT-experienced, 36 months): 11/12 | patients whose urine Hex4 decreased numerically from baseline (n/N) ([2]; ERT-experienced, 48 months): 6/9 | patients with abnormal baseline Hex4 who returned to normal Hex4 levels at Month 48 ([2]; ERT-naïve ambulatory (one of four)): 25.0% | patients whose urine Hex4 decreased numerically from baseline (n/N) ([2]; ERT-naïve, 12 months): 5/6 | patients whose urine Hex4 decreased numerically from baseline (n/N) ([2]; ERT-naïve, 24 months): 5/6 | patients whose urine Hex4 decreased numerically from baseline (n/N) ([2]; ERT-naïve, 36 months): 4/5 | patients whose urine Hex4 decreased numerically from baseline (n/N) ([2]; ERT-naïve, 48 months): 4/5 | Urinary Hex4, % CFBL mean [2, 13]: −15.6% | Urinary Hex4, % CFBL mean [2, 14]: −34.1% | Urinary Hex4, % CFBL mean [2, 15]: −36.5% | Urinary Hex4, % CFBL mean [2, 16]: −9.4 ) % | PGIC: Declined, % [3, 17]: (0) % | PGIC: Improved, % [3, 17]: (57.1) % | PGIC: No change, % [3, 17]: (42.9) % | SGIC; Overall physical wellbeing: Declined, % [3, 17]: (0) % | SGIC; Overall physical wellbeing: Improved, % [3, 17]: (85.7) % | SGIC; Overall physical wellbeing: No change, % [3, 17]: (14.3) % | PGIC: Declined, % [3, 18]: (0) % | PGIC: Improved, % [3, 18]: (60.0) % | PGIC: No change, % [3, 18]: (40.0) % | SGIC; Overall physical wellbeing: Declined, % [3, 18]: (0) % | SGIC; Overall physical wellbeing: Improved, % [3, 18]: (60.0) % | SGIC; Overall physical wellbeing: No change, % [3, 18]: (40.0) % | PGIC: Declined, % [3, 19]: (0) % | PGIC: Improved, % [3, 19]: (100.0) % | PGIC: No change, % [3, 19]: (0) % | SGIC; Overall physical wellbeing: Declined, % [3, 19]: (0) % | SGIC; Overall physical wellbeing: Improved, % [3, 19]: (83.3) % | SGIC; Overall physical wellbeing: No change, % [3, 19]: (16.7) % | PGIC: Declined, % [3, 20]: (0) % | PGIC: Improved, % [3, 20]: (33.3) % | PGIC: No change, % [3, 20]: (66.7) % | SGIC; Overall physical wellbeing: Declined, % [3, 20]: (16.7) % | SGIC; Overall physical wellbeing: Improved, % [3, 20]: (66.7) % | SGIC; Overall physical wellbeing: No change, % [3, 20]: (16.7) %

alglucosidase alfa [reference compound]
participants with infusion (injection) associated reactions (IARs) [4]: 26% | patients who discontinued treatment due to an adverse event [4]: 2.6%

Source: patent publication US20260041744A1, “Methods for Treating Pompe Disease” (Amicus Therapeutics, Inc., priority 2022, published 2026)
